Measured values published in patent US7723326B2, “Heterocyclic amide derivatives as RXR agonists for the treatment of dyslipidemia, hypercholesterolemia and diabetes” (Janssen Pharmaceutica N.V., priority 2005, dated 2010).
“And” between values parts separate entries of the source, which are not always exact repeats. Identical values can stand only once.

Key:
[1] = system: ABCA1 mRNA in THP-1 cells; test: ABCA1 bDNA assay (ABCA1 mRNA induction); format: cell-based; details: Homo sapiens; for EC50: ABCA1 mRNA induction, usually 18-24 hrs; for Emax at 3 µM: relative to MX-6054, read-out: ABCA1 % max MX-6054
Procedure: THP-1 cells, a human monocytic cell line, were obtained from ATCC and maintained in RPMI (Gibco) supplemented with 10% fetal bovine serum (Gibco), 2mM L-glutamine and 1% antibiotic-antimycotic in 5% CO2 at 37° C. For ABCA1 mRNA induction assays, the cells were pelleted and resuspended in RPMI supplemented with 0.5% charcoal treated serum (Hyclone), 2 mM glutamine and 1% antibiotic-antimycotic. The cells were plated at a density of 40,000 cells/90 μl and incubated as above for at least 4 hours before the initiation of treatments. Compounds were prepared as 10 mM stocks in DMSO. For treatments, the compounds were diluted in medium and 10 μl of 10× stocks were added to the cells at a final concentration 0.1% DMSO. The cells were incubated for the desired amount of time (usually 18-24 hrs) and then lyzed with 50 μl of Quantigene HV bDNA lysis buffer which also contained the ABCA1 bDNA probes (probe sequences shown below): […]

[2] = target: T1, RXR ligand binding domain (accession number X52773) fused with the DNA binding domain of yeast GAL4 (Homo sapiens, UniProt P19793); test: RXR co-transfection assay (GAL4-LBD luciferase reporter in HEK293 cells); format: cell-based; details: 16-18 hours
T1 construct: expressed in transfected cells; host or cells: HEK293
T1 sequence (P19793 227-458 limits assumed): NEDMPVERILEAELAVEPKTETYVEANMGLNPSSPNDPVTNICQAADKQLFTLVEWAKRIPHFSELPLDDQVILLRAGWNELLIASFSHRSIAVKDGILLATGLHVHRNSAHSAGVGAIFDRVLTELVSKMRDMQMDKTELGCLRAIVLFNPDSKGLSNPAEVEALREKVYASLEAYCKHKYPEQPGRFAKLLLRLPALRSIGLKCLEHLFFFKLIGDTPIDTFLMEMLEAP
Procedure: The nucleic acid sequence from 676-1464bp (accession number X52773) encoding the ligand binding domains was subcloned into the pM vector (BD Biosciences Clontech, Palo Alto, Calif.) and were fused with the DNA binding domain of yeast GAL4. HEK293 cells were cultured in DMEM/F12 medium supplemented with 10% FBS and 1% 1-glutamine (growth medium). Cells were seeded at a density of 5-10×10^6 cells in 50 ml of growth medium and left overnight, The medium was removed and the cells were washed with 15 ml of OptiMEM serum free medium (Invitrogen Corp). The cells were transfected using OptiMEM serum free medium and DMRIE transfection reagent (Invitrogen Corp). Approximately 10-30 ng of DNA for the different receptors and 5-10 ng of the luciferase reporter (1:1 ratio for RAR and 4:1 ratio for RXR of receptor DNA:reporter DNA) were gently mixed with 51 μl of DMRIE reagent in a total volume of 17 ml of OptiMEM medium. Eighteen hours after transfection, the cells were washed once with growth medium and then incubated for 6 hrs in 30 ml of growth medium. The cells were then trypsinized, and reseeded at a density of 50,000 per well in 96 well plates and left overnight. The medium was replaced with 90 μl of medium containing DMEM/F12 supplemented with 0.5% charcoal-treated FBS (HyClone; Logan, Utah) and 1% glutamine. Compounds or vehicle were added in 10 μl of 10× concentration of compound or vehicle (0.1% dimethyl sulfoxide). The cells were treated for 16-18 hours, lysed and assayed for luciferase activity using the Steady Gio luciferase assay kit (Promega, Madison, Wis.).

EC50 [1] [nM] | EC50 [2] | SMILES | Emax at 3 µM [1] [%]
> 2000 | – | CCN1C(=O)OCc2cc(C)c(-c3cc([C@@H]4C[C@H]4C(=O)O)ccc3OC(F)(F)F)cc21 (racemic) [Compound 21, 2-[3-(1-Ethyl-6-methyl-2-oxo-1,4-dihydro-2H-benzo[d][1,3]oxazin-7-yl)-4-trifluoromethoxy-phenyl]-cyclopropanecarboxylic acid] | –
> 2000 | 385 nM | CCN1C(=O)C(C)(C)Oc2cc(C)c(-c3cc([C@@H]4C[C@H]4C(=O)O)ccc3OC(F)(F)F)cc21 (racemic) [Compound 22, 2-[3-(4-Ethyl-2,2,7-trimethyl-3-oxo-3,4-dihydro-2H-benzo[1,4]oxazin-6-yl)-4-trifluoromethoxy-phenyl]-cyclopropanecarboxylic acid] | 28.6
> 2000 | 719 nM | Cc1cc2c(cc1-c1cc(C3CC3C(=O)O)ccc1OC(F)(F)F)N(C(C)C)C(=O)C(C)(C)O2 (racemic) [Compound 23, 2-[3-(4-Isopropyl-2,2,7-trimethyl-3-oxo-3,4-dihydro-2H-benzo[1,4]oxazin-6-yl)-4-trifluoromethoxy-phenyl]-cyclopropanecarboxylic acid] | 64.1
> 2000 | > 2000 nM | CCn1c(=O)c(=O)n(CC)c2cc(-c3cc([C@@H]4C[C@H]4C(=O)O)ccc3OC(F)(F)F)c(C)cc21 (racemic) [Compound 26, 2-[3-(1,4-Diethyl-7-methyl-2,3-dioxo-1,2,3,4-tetrahydro-quinoxalin-6-yl)-4-trifluoromethoxy-phenyl]-cyclopropanecarboxylic acid] | –
39.7 | 151 nM and 180 nM and 189 nM | CCN1C(=O)C(C)(C)Oc2cc(C)c(-c3cc(/C=C/C(=O)O)ccc3OC(F)(F)F)cc21 [Compound 1, 3-[3-(4-Ethyl-2,2,7-trimethyl-3-oxo-3,4-dihydro-2H-benzo[1,4]oxazin-6-yl)-4-trifluoromethoxy-phenyl]-acrylic acid] | –
> 2000 | > 2000 nM | CCN1C(=O)C(C)(C)Oc2cc(C)c(-c3cc(/C=C/C(=O)O)ccc3OCC(F)(F)F)cc21 [Compound 2, 3-[3-(4-Ethyl-2,2,7-trimethyl-3-oxo-3,4-dihydro-2H-benzo[1,4]oxazin-6-yl)-4-(2,2,2-trifluoro-ethoxy)-phenyl]-acrylic acid] | –
> 2000 | > 2000 nM | Cc1cc2c(cc1-c1cc(/C=C/C(=O)O)ccc1OC(F)(F)F)N(C)C(=O)C(C)(C)O2 [Compound 3, 3-[3-(2,2,4,7-Tetramethyl-3-oxo-3,4-dihydro-2H-benzo[1,4]oxazin-6-yl)-4-trifluoromethoxy-phenyl]-acrylic acid] | 8.4
430 | 98.8 nM | Cc1cc2c(cc1-c1cc(/C=C/C(=O)O)ccc1OC(F)(F)F)N(C(C)C)C(=O)C(C)(C)O2 [Compound 4, 3-[3-(4-Isopropyl-2,2,7-trimethyl-3-oxo-3,4-dihydro-2H-benzo[1,4]oxazin-6-yl)-4-trifluoromethoxy-phenyl]-acrylic acid] | 79
> 2000 | > 2000 nM | Cc1cc2c(cc1-c1cc(/C=C/C(=O)O)ccc1OCC(F)(F)F)N(C)C(=O)C(C)(C)O2 [Compound 5, 3-[3-(2,2,4,7-Tetramethyl-3-oxo-3,4-dihydro-2H-benzo[1,4]oxazin-6-yl)-4-(2,2,2-trifluoro-ethoxy)-phenyl]-acrylic acid] | –
> 2000 | – | CCN1C(=O)COc2cc(C)c(-c3cc(/C=C/C(=O)O)ccc3OC(F)(F)F)cc21 [Compound 6, 3-[3-(4-Ethyl-7-methyl-3-oxo-3,4-dihydro-2H-benzo[1,4]oxazin-6-yl)-4-trifluoromethoxy-phenyl]-acrylic acid] | –
> 2000 | – | CCN1C(=O)C(C)Oc2cc(C)c(-c3cc(/C=C/C(=O)O)ccc3OC(F)(F)F)cc21 (stereo not shown) [Compound 7, 3-[3-(4-Ethyl-2,7-dimethyl-3-oxo-3,4-dihydro-2H-benzo[1,4]oxazin-6-yl)-4-trifluoromethoxy-phenyl]-acrylic acid] | –
> 2000 | – | CCC1Oc2cc(C)c(-c3cc(/C=C/C(=O)O)ccc3OC(F)(F)F)cc2N(CC)C1=O (stereo not shown) [Compound 8, 3-[3-(2,4-Diethyl-7-methyl-3-oxo-3,4-dihydro-2H-benzo[1,4]oxazin-6-yl)-4-trifluoromethoxy-phenyl]-acrylic acid] | –
> 2000 | – | CCN1C(=O)C(C(C)C)Oc2cc(C)c(-c3cc(/C=C/C(=O)O)ccc3OC(F)(F)F)cc21 (stereo not shown) [Compound 9, 3-[3-(4-Ethyl-2-isopropyl-7-methyl-3-oxo-3,4-dihydro-2H-benzo[1,4]oxazin-6-yl)-4-trifluoromethoxy-phenyl]-acrylic acid] | –
> 2000 | 1400 nM | CCN1C(=O)C(C)(C)Oc2cc(C)c(-c3cc(/C=C(\C)C(=O)O)ccc3OC(F)(F)F)cc21 [Compound 10, 3-[3-(4-Ethyl-2,2,7-trimethyl-3-oxo-3,4-dihydro-2H-benzo[1,4]oxazin-6-yl)-4-trifluoromethoxy-phenyl]-2-methyl-acrylic acid] | 37.2
> 2000 | – | CCN1C(=O)OC(C)(C)c2cc(C)c(-c3cc(/C=C/C(=O)O)ccc3OC(F)(F)F)cc21 [Compound 14, 3-[3-(1-Ethyl-4,4,6-trimethyl-2-oxo-1,4-dihydro-2H-benzo[d][1,3]oxazin-7-yl)-4-trifluoromethoxy-phenyl]-acrylic acid] | –
> 2000 | – | CCN1C(=O)OCc2cc(C)c(-c3cc(/C=C/C(=O)O)ccc3OC(F)(F)F)cc21 [Compound 15, 3-[3-(1-Ethyl-6-methyl-2-oxo-1,4-dihydro-2H-benzo[d][1,3]oxazin-7-yl)-4-trifluoromethoxy-phenyl]-acrylic acid] | –
> 2000 | – | CCN1C(=O)OC(C(C)C)c2cc(C)c(-c3cc(/C=C/C(=O)O)ccc3OC(F)(F)F)cc21 (stereo not shown) [Compound 16, 3-[3-(1-Ethyl-4-isopropyl-6-methyl-2-oxo-1,4-dihydro-2H-benzo[d][1,3]oxazin-7-yl)-4-trifluoromethoxy-phenyl]-acrylic acid] | –
> 2000 | – | CCN1C(=O)OC(C)(C)c2cc(C)c(-c3cc(CCC(=O)O)ccc3OC(F)(F)F)cc21 [Compound 17, 3-[3-(1-Ethyl-4,4,6-trimethyl-2-oxo-1,4-dihydro-2H-benzo[d][1,3]oxazin-7-yl)-4-trifluoromethoxy-phenyl]-propionic acid] | –
> 2000 | – | CCN1C(=O)OC(C)(C)c2cc(C)c(-c3cc([C@@H]4C[C@H]4C(=O)O)ccc3OC(F)(F)F)cc21 [Compound 19, 2-[3-(1-Ethyl-4,4,6-trimethyl-2-oxo-1,4-dihydro-2H-benzo[d][1,3]oxazin-7-yl)-4-trifluoromethoxy-phenyl]-cyclopropanecarboxylic acid] | –
> 2000 | – | CCN1C(=O)OC(C(C)C)c2cc(C)c(-c3cc([C@@H]4C[C@H]4C(=O)O)ccc3OC(F)(F)F)cc21 (stereo partly shown) [Compound 20, 2-[3-(1-Ethyl-4-isopropyl-6-methyl-2-oxo-1,4-dihydro-2H-benzo[d][1,3]oxazin-7-yl)-4-trifluoromethoxy-phenyl]-cyclopropanecarboxylic acid] | –
> 2000 | – | CCn1c(=O)c(=O)n(CC)c2cc(-c3cc(/C=C/C(=O)O)ccc3OC(F)(F)F)c(C)cc21 [Compound 24, 3-[3-(1,4-Diethyl-7-methyl-2,3-dioxo-1,2,3,4-tetrahydro-quinoxalin-6-yl)-4-trifluoromethoxy-phenyl]-acrylic acid] | –
> 2000 | – | CCN1C(=O)CN(C(C)C)c2cc(C)c(-c3cc(/C=C/C(=O)O)ccc3OC(F)(F)F)cc21 [Compound 25, 3-[3-(4-Ethyl-1-isopropyl-7-methyl-3-oxo-1,2,3,4-tetrahydro-quinoxalin-6-yl)-4-trifluoromethoxy-phenyl]-acrylic acid] | –
> 2000 | – | CCN1CC(C)(C)Oc2cc(C)c(-c3cc(/C=C/C(=O)O)ccc3OC(F)(F)F)cc21 [Compound 27, 3-[3-(4-Ethyl-2,2,7-trimethyl-3,4-dihydro-2H-benzo[1,4]oxazin-6-yl)-4-trifluoromethoxy-phenyl]-acrylic acid] | –
